Test results from paper PMC6128854 (Scientific Reports, 2018).
Positions of bridges follow the written chain, without caps; N, C: chain ends. Non-standard residues stand in square brackets, D forms with d. Residues, ends and D or L forms follow the SMILES beside them. Hyp = O=C(O)[C@@H]1C[C@@H](O)CN1

Columns and labels:
[1] = target: endogenous human Cav1.3 (Homo sapiens, UniProt Q01668)
[2] = target: endogenous human Cav3.1 (Homo sapiens, UniProt O43497)
[3] = target: N-type calcium channel currents (Cav2.2) in rDRG neurons (Rattus norvegicus, UniProt Q02294); test: cell-based; settings: SEM
[4] = tested on: side effects in rats; settings: rat, in vivo

endogenous human Cav1.3, sequence (Q01668 whole entry): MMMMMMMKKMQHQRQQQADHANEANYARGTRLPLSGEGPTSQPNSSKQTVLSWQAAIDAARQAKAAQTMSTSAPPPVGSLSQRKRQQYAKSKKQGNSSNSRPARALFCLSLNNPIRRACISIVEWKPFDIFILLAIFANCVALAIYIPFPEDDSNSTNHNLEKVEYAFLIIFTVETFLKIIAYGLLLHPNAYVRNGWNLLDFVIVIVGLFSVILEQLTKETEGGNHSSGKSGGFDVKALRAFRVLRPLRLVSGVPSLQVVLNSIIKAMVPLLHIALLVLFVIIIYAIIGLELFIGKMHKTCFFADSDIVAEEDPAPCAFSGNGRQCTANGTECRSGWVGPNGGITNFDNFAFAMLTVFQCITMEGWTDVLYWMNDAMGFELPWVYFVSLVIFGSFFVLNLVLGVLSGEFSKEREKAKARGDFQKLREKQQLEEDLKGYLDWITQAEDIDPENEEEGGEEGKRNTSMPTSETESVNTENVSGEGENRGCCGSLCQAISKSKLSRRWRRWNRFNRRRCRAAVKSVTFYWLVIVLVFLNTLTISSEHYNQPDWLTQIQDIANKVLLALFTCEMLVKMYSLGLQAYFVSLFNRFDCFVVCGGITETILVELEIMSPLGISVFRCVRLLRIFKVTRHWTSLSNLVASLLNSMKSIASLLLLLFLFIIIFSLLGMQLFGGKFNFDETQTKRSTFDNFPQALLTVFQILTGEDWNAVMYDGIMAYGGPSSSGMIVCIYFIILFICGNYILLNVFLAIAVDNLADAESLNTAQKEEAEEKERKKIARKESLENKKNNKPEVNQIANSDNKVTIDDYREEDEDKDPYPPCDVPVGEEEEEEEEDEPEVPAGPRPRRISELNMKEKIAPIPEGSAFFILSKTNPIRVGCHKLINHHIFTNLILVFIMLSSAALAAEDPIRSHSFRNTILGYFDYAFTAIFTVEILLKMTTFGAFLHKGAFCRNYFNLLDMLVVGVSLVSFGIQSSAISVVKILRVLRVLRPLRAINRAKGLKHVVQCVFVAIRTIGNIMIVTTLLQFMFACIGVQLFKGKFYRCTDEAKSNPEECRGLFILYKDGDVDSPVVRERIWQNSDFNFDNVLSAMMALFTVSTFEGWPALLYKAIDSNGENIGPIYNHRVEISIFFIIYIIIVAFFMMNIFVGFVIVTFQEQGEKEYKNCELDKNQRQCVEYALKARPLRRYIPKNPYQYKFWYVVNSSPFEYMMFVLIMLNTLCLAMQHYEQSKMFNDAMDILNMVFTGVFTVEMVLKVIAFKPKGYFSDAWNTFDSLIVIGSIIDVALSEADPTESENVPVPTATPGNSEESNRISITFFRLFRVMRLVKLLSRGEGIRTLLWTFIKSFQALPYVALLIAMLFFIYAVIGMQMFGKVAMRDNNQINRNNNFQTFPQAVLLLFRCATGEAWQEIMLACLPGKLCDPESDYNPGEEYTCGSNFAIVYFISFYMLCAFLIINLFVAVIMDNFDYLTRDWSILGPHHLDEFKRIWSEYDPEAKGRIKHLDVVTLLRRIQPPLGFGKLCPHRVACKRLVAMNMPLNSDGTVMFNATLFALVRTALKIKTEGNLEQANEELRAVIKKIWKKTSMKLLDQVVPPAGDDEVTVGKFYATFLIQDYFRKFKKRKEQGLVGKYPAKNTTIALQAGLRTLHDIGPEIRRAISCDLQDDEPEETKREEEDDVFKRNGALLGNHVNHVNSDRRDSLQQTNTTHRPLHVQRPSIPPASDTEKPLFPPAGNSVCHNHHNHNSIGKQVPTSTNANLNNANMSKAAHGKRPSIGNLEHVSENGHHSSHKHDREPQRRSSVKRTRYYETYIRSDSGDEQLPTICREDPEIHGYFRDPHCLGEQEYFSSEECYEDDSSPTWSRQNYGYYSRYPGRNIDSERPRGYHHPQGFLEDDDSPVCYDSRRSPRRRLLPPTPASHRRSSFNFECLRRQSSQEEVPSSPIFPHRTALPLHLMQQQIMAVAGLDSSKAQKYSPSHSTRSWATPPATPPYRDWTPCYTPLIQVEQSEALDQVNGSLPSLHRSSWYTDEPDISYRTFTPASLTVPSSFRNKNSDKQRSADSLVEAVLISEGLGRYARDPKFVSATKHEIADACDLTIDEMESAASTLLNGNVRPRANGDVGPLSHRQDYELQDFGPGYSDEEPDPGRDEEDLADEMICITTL
endogenous human Cav1.3, sequence (P54289 25-956 partner limits assumed): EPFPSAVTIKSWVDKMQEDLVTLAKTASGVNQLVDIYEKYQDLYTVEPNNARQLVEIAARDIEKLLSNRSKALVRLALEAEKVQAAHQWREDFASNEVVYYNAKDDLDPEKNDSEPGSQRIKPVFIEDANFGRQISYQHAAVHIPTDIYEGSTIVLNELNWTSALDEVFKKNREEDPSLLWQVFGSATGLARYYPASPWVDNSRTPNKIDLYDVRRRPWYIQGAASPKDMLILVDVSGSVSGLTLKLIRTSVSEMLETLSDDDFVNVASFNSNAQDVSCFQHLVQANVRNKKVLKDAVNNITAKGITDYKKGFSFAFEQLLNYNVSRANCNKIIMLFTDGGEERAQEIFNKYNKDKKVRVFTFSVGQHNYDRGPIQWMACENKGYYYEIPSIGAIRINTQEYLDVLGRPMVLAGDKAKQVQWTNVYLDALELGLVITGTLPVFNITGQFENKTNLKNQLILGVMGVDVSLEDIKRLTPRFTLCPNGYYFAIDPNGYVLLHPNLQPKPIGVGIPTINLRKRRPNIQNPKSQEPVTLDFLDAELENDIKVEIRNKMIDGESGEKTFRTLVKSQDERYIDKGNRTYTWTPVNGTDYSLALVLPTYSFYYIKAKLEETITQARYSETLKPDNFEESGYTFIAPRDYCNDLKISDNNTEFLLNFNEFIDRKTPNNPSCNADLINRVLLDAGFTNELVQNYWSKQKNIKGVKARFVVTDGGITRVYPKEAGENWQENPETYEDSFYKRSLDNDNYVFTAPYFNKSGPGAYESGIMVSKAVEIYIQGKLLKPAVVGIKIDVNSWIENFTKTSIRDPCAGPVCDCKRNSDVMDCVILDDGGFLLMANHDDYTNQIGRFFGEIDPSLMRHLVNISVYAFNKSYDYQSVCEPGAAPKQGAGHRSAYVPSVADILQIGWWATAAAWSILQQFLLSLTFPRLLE
endogenous human Cav1.3, sequence (P54289 957-1103 partner limits assumed): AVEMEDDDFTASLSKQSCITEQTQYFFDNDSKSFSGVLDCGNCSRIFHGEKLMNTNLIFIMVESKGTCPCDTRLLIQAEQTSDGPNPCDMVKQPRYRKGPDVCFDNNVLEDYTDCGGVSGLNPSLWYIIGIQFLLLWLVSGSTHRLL
endogenous human Cav1.3, sequence (P54284 whole entry partner): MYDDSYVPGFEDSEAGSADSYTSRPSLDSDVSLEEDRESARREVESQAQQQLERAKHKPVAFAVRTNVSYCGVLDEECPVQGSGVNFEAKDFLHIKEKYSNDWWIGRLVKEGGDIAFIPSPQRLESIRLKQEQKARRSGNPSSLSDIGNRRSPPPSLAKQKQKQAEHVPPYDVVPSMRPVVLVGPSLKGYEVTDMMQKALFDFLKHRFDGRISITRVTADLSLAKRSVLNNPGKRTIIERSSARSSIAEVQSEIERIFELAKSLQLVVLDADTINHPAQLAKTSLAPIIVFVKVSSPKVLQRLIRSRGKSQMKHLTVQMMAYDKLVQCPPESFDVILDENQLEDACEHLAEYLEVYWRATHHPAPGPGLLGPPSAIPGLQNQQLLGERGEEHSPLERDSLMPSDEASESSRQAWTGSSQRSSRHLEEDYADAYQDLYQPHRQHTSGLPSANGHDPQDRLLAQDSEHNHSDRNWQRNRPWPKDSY

| Structure (SMILES) | activity at endogenous human Cav1.3 [1] | activity at endogenous human Cav3.1 [2] | IC50 [3] | duration of side effects [4] | therapeutic index (ratio of ED50 visual side effect score to ED50 mechanical PWT) [4] | ED50 for visual side effect score ([4]; SEM) |
| --- | --- | --- | --- | --- | --- | --- |
| CC[C@H](C)[C@@H]1NC(=O)[C@@H]2CSSC[C@@H]3NC(=O)[C@H](CCCCN)NC(=O)[C@H](CO)NC(=O)CNC(=O)[C@@H]4C[C@@H](O)CN4C(=O)[C@@H]4CCCN4C(=O)[C@H](CCCCN)NC(=O)[C@@H](N)CSSC[C@H](NC(=O)[C@H](CSSC[C@@H](C(=O)N[C@@H](CCCNC(=N)N)C(=O)N[C@@H](CCCCN)C(=O)N[C@@H](Cc4ccc(O)cc4)C(=O)N[C@@H](Cc4ccc(O)cc4)C(=O)N[C@@H](CC(N)=O)C(=O)O)NC(=O)[C@H](CCCNC(=N)N)NC(=O)[C@H](CCCCN)NC(=O)[C@H]([C@@H](C)O)NC(=O)[C@H](Cc4ccc(O)cc4)NC(=O)[C@H](CO)NC1=O)NC(=O)[C@H](CC(=O)O)NC(=O)[C@H](CCCNC(=N)N)NC(=O)[C@H](CCSC)NC(=O)[C@H](CO)NC(=O)[C@@H]1C[C@@H](O)CN1C(=O)[C@H](CO)NC3=O)C(=O)N[C@@H]([C@@H](C)O)C(=O)N[C@@H]([C@@H](C)O)C(=O)N2 [MoVIA] (H-CKP[Hyp]GSKCS[Hyp]SMRDCCTTCISYTKRCRKYYN-OH; disulfide 1-16, 8-19, 15-26) | inactive | inactive | 80 ± 10 nM | – | – | – |
| CC[C@H](C)[C@@H]1NC(=O)[C@@H]2CSSC[C@@H]3NC(=O)[C@H](CCCCN)NC(=O)[C@H](CO)NC(=O)CNC(=O)[C@@H]4C[C@@H](O)CN4C(=O)[C@@H]4CCCN4C(=O)[C@H](CCCCN)NC(=O)[C@@H](N)CSSC[C@H](NC(=O)[C@H](CSSC[C@@H](C(=O)N[C@@H](CCCNC(=N)N)C(=O)N[C@@H](CCCCN)C(=O)N[C@@H](Cc4ccc(O)cc4)C(=O)N[C@@H](Cc4ccc(O)cc4)C(=O)O)NC(=O)[C@H](CCCNC(=N)N)NC(=O)[C@H](CCCCN)NC(=O)[C@H]([C@@H](C)O)NC(=O)[C@H](Cc4ccc(O)cc4)NC(=O)[C@H](CO)NC1=O)NC(=O)[C@H](CC(=O)O)NC(=O)[C@H](CCCNC(=N)N)NC(=O)[C@H](CCSC)NC(=O)[C@H](CO)NC(=O)[C@@H]1C[C@@H](O)CN1C(=O)[C@H](CO)NC3=O)C(=O)N[C@@H]([C@@H](C)O)C(=O)N[C@@H]([C@@H](C)O)C(=O)N2 [MoVIB] (H-CKP[Hyp]GSKCS[Hyp]SMRDCCTTCISYTKRCRKYY-OH; disulfide 1-16, 8-19, 15-26) | inactive | inactive | 180 ± 30 nM | up to 4 h | 2.2 | 0.09 ± 0.05 nmol |
